One experiment deals with B-Raf delta1-415 (Homo sapiens, UniProt P15056). As to the kind of experiment: B-Raf kinase inhibition (MAPH filter plate, 33P-ATP, MEK1 substrate). As to conditions: read-out: Biochemical IC50 B-Raf. The essentials:
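IC50 values come from dilution series (top 10 μM) measured by scintillation counting of 33P-labelled MEK1 retained on H3PO4-washed filters. Reactions ran 1 h at room temperature in pH 7.0 Mops buffer with MgCl2, MnCl2 and DTT, using 12.5 μCi/ml [γ-33P]ATP and B-Raf delta1-415 titrated to 50% turnover.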

The test system of the next experiment is HT-29 tumor cells. As to the kind of experiment: Anti-proliferative activity, SRB assay. It counts as cell-based, human. As to conditions: Homo sapiens, HT-29, 72 h, 72 hours exposure, read-out: CELLULAR IC50 HT-29. In a few lines:
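IC50 derived from % inhibition relative to DMSO controls, measured by sulforhodamine B binding (OD570) after TCA fixation. Cells (3,000-15,000 per well) were seeded a day ahead, then treated with graded compound concentrations for 72 hours.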

Sequence of B-Raf delta1-415 (P15056 416-766): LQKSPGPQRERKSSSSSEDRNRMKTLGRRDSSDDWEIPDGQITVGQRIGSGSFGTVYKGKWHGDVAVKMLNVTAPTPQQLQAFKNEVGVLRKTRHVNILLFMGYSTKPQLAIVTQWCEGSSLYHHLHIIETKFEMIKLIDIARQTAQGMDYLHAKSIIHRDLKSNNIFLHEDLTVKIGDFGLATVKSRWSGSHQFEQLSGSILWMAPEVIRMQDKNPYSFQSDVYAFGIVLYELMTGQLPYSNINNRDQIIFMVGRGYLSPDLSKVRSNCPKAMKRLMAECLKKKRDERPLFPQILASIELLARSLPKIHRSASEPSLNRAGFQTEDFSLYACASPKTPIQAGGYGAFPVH

For orientation: IC50 means the concentration that inhibits the measured activity by half. Regarding `CCN(CC)Cc1ccc(Nc2ncc3cc(-c4c(Cl)cccc4Cl)c(=O)n(OC)c3n2)cc1` [Compound 167, 6-(2,6-Dichlorophenyl)-2-(4-diethylaminomethylphenyl)-amino-8-methoxy-pyrido[2,3-d]pyrimidin-7-one], the IC50 on B-Raf delta1-415 was less than 500 nM; with HT-29 tumor cells it was less than 1000 nM.
The corresponding values for `COn1c(=O)c(-c2c(Cl)cccc2Cl)cc2cnc(Nc3ccc(C#N)cc3)nc21` [Compound 86, 2-(4-Cyanophenyl)-amino-6-(2,6-dichlorophenyl)-8-methoxy-pyrido[2,3-d]pyrimidin-7-one] are less than 1000 nM and less than 1000 nM.
Consider `COn1c(=O)c(-c2c(Cl)cccc2Cl)cc2cnc(Nc3cc(C(=O)N(C)CCO)n(C)c3)nc21` [Compound 116, 6-(2,6-Dichlorophenyl)-2-(5-(N-(2-hydroxyethyl)-N-methyl-amino)carbonyl-1-methyl-pyrrol-3-yl)-amino-8-methoxy-pyrido[2,3-d]pyrimidin-7-one], for which the IC50 was less than 100 nM at B-Raf delta1-415 and less than 1000 nM in the experiment with HT-29 tumor cells.
For `COn1c(=O)c(-c2c(Cl)cccc2Cl)cc2cnc(Nc3nncs3)nc21` [Compound 90, 6-(2,6-Dichlorophenyl)-8-methoxy-2-(1-thia-3,4-diazol-2-yl)-amino-pyrido[2,3-d]pyrimidin-7-one], in that order: less than 500 nM and less than 10000 nM.
Take `COn1c(=O)c(-c2c(Cl)cccc2Cl)cc2cnc(Nc3cccc(CN4CC[C@@H](O)C4)c3)nc21` [Compound 182, 6-(2,6-Dichlorophenyl)-2-(3-(3-(R)-hydroxypyrrolidinomethyl)phenyl)-amino-8-methoxy-pyrido[2,3-d]pyrimidin-7-one]: the values for the IC50 at B-Raf delta1-415 and with HT-29 tumor cells were less than 500 nM and less than 1000 nM, respectively.
For `COn1c(=O)c(-c2c(Cl)cccc2Cl)cc2cnc(Nc3ccc(CO)cc3)nc21` [Compound 144, 6-(2,6-Dichlorophenyl)-2-(4-hydroxymethylphenyl)-amino-8-methoxy-pyrido[2,3-d]pyrimidin-7-one], in that order: less than 100 nM and less than 10000 nM.
For `COn1c(=O)c(-c2c(Cl)cccc2Cl)cc2cnc(Nc3ccc(Cn4cccn4)cc3)nc21` [Compound 124, 6-(2,6-dichlorophenyl)-8-methoxy-2-(4-(pyrazol-1-ylmethyl)phenyl)-amino-pyrido[2,3-d]pyrimidin-7-one], in that order: less than 500 nM and less than 1000 nM.
As for `COn1c(=O)c(-c2c(Cl)cccc2Cl)cc2cnc(Nc3cc(C(=O)N4CCNCC4)n(C)c3)nc21` [Compound 185, 6-(2,6-Dichlorophenyl)-8-methoxy-2-(5-piperazinocarbonyl-1-methyl-pyrrol-3-yl)-amino-pyrido[2,3-d]pyrimidin-7-one], the IC50 is less than 100 nM at B-Raf delta1-415 and less than 1000 nM with HT-29 tumor cells.
For `COn1c(=O)c(-c2c(Cl)cccc2Cl)cc2cnc(Nc3cc(C(=O)NCCCN4CCCC4)n(C)c3)nc21` [Compound 95], in that order: less than 500 nM and less than 1000 nM.
As to `COn1c(=O)c(-c2c(Cl)cccc2Cl)cc2cnc(Nc3ccc(CN4CCN(C(C)C)CC4)cc3)nc21` [Compound 166], the figures for the IC50 at B-Raf delta1-415 and with HT-29 tumor cells were less than 500 nM and less than 1000 nM, respectively.
Turning to `COn1c(=O)c(-c2c(Cl)cccc2Cl)cc2cnc(NCc3ccccc3)nc21` [Compound 145, 6-(2,6-Dichlorophenyl)-8-methoxy-2-phenylmethylamino-pyrido[2,3-d]pyrimidin-7-one], the IC50 on B-Raf delta1-415 and in the experiment with HT-29 tumor cells was less than 10000 nM in each case.
With `CCCN1CCN(c2ccc(Nc3ncc4cc(-c5c(F)cccc5Cl)c(=O)n(OC)c4n3)cc2)CC1` [Compound 217, 6-(2-Chloro-6-fluorophenyl)-8-methoxy-2-(4-(4-propylpiperazino)phenyl)-amino-pyrido[2,3-d]pyrimidin-7-one], the values for the IC50 on B-Raf delta1-415 and with HT-29 tumor cells were less than 500 nM and less than 1000 nM, respectively.
For `O=c1c(-c2c(F)cccc2Cl)cc2cnc(Nc3ccc(N4CCOCC4)cc3)nc2n1OCc1cccnc1` [Compound 132], in that order: less than 100 nM and less than 1000 nM.
For `COn1c(=O)c(-c2c(Cl)cccc2Cl)cc2cnc(Nc3ccc(N4CCN(S(C)(=O)=O)CC4)cc3)nc21` [Compound 200, 6-(2,6-Dichlorophenyl)-8-methoxy-2-(4-(4-methylsulfonyl)piperazino-phenyl)-amino-pyrido[2,3-d]pyrimidin-7-one], in that order: less than 500 nM and less than 1000 nM.
For `COn1c(=O)c(-c2c(Cl)cccc2Cl)cc2cnc(Nc3ccc(N4CCNCC4)cc3)nc21` [Compound 184, 6-(2,6-Dichlorophenyl)-8-methoxy-2-(4-piperazinophenyl)-amino-pyrido[2,3-d]pyrimidin-7-one], in that order: less than 100 nM and less than 1000 nM.
`Cn1cc(Nc2ncc3cc(-c4c(Cl)cccc4Cl)c(=O)n(OC[C@H](O)CO)c3n2)cc1C(=O)NCCN1CCCC1` [Compound 108, 6-(2,6-Dichlorophenyl)-8-(2-(R)-2,3-dihydroxypropyl)oxy-2-(5-(2-pyrrolidinoethyl)aminocarbonyl-1-methyl-pyrrol-3-yl)-amino-pyrido[2,3-d]pyrimidin-7-one]: the results for the IC50 at B-Raf delta1-415 and in the experiment with HT-29 tumor cells were less than 500 nM and less than 1000 nM, respectively.
Regarding `COn1c(=O)c(-c2c(Cl)cccc2Cl)cc2cnc(Nc3ccc(N4CCCC4=O)cc3)nc21` [Compound 110, 6-(2,6-Dichlorophenyl)-8-methoxy-2-(4-(2-oxopyrrolidino)phenyl)-amino-pyrido[2,3-d]pyrimidin-7-one], the IC50 on B-Raf delta1-415 is less than 100 nM; with HT-29 tumor cells it was less than 1000 nM.
For `CCN1CCN(c2ccc(Nc3ncc4cc(-c5c(Cl)cccc5Cl)c(=O)n(OC)c4n3)cc2)CC1` [Compound 189, 6-(2,6-Dichlorophenyl)-2-(4-(4-ethylpiperazino)phenyl)-amino-8-methoxy-pyrido[2,3-d]pyrimidin-7-one], in that order: less than 500 nM and less than 1000 nM.
As for `CC(C)(C)On1c(=O)c(Br)cc2cnc(Nc3ccccc3)nc21` [Compound 239], the IC50 on B-Raf delta1-415 and with HT-29 tumor cells was greater than 10000 nM each time.
For `COn1c(=O)c(-c2c(F)cccc2Cl)cc2cnc(Nc3cc(C(=O)N4CCNCC4)n(C)c3)nc21` [Compound 208, 6-(2-Chloro-6-fluorophenyl)-8-methoxy-2-(5-piperazinocarbonyl-1-methyl-pyrrol-3-yl)-amino-pyrido[2,3-d]pyrimidin-7-one], the values for the IC50 at B-Raf delta1-415 and with HT-29 tumor cells were less than 100 nM and less than 1000 nM, respectively.
For `COn1c(=O)c(-c2c(Cl)cccc2Cl)cc2cnc(Nc3ccc(CN4CCOCC4)cc3)nc21` [Compound 100, 6-(2,6-Dichlorophenyl)-8-methoxy-2-(4-morpholinomethylphenyl)-amino-pyrido[2,3-d]pyrimidin-7-one], in that order: less than 500 nM and less than 1000 nM.
On to `CCNS(=O)(=O)c1cccc(Nc2ncc3cc(-c4c(Cl)cccc4Cl)c(=O)n(OC)c3n2)c1` [Compound 122, 6-(2,6-Dichlorophenyl)-2-(3-ethylaminosulfonylphenyl)-amino-8-methoxy-pyrido[2,3-d]pyrimidin-7-one], for which the IC50 at B-Raf delta1-415 is less than 500 nM; in the experiment on HT-29 tumor cells, less than 1000 nM.
The corresponding values for `O=c1c(-c2c(F)cccc2Cl)cc2cnc(Nc3ccc(N4CCOCC4)cc3)nc2n1OC[C@H]1CCNC1` [Compound 155] are less than 100 nM and less than 1000 nM.
The corresponding values for `COn1c(=O)c(-c2c(Cl)cccc2Cl)cc2cnc(Nc3ccc(CN4CC[C@@H](O)C4)cc3)nc21` [Compound 179, 6-(2,6-Dichlorophenyl)-2-(4-(3-(R)-hydroxypyrrolidinomethyl)phenyl)-amino-8-methoxy-pyrido[2,3-d]pyrimidin-7-one] are less than 100 nM and less than 1000 nM.
For `COn1c(=O)c(-c2c(Cl)cccc2Cl)cc2cnc(Nc3cc(C(=O)NCCOC(=O)[C@@H](N)C(C)C)n(C)c3)nc21` [Compound 112, 2-(5-(2-(2-(S)-2-Amino-3-methylbutanoyloxy)ethyl)aminocarbonyl-1-methyl-pyrrol-3-yl)-amino-6-(2,6-dichlorophenyl)-8-methoxy-pyrido[2,3-d]pyrimidin-7-one], in that order: less than 500 nM and less than 1000 nM.
With `COn1c(=O)c(-c2c(Cl)cccc2Cl)cc2cnc(Nc3cc(C(=O)NCCN4CCCC4)n(C)c3)nc21` [Compound 94, 6-(2,6-Dichlorophenyl)-8-methoxy-2-(5-(2-pyrrolidinoethyl)aminocarbonyl-1-methyl-pyrrol-3-yl)-amino-pyrido[2,3-d]pyrimidin-7-one], the IC50 at B-Raf delta1-415 was less than 500 nM; in the experiment on HT-29 tumor cells, less than 1000 nM.
For `COn1c(=O)c(-c2c(F)cccc2Cl)cc2cnc(Nc3ccc(N4CCNCC4)c(CO)c3)nc21` [Compound 218, 6-(2-Chloro-6-fluorophenyl)-8-methoxy-2-(3-hydroxymethyl-4-piperazinophenyl)-amino-pyrido[2,3-d]pyrimidin-7-one], in that order: less than 100 nM and less than 1000 nM.
The corresponding values for `COn1c(=O)c(-c2c(Cl)cccc2Cl)cc2cnc(NCc3cccnc3)nc21` [Compound 146, 6-(2,6-Dichlorophenyl)-8-methoxy-2-pyrid-3-ylmethylamino-pyrido[2,3-d]pyrimidin-7-one] are less than 500 nM and less than 10000 nM.
The corresponding values for `COC(=O)c1ccc(Nc2ncc3cc(-c4c(Cl)cccc4Cl)c(=O)n(OC)c3n2)cc1` [Compound 162, 6-(2,6-Dichlorophenyl)-2-(4-methoxycarbonylphenyl)-amino-8-methoxy-pyrido[2,3-d]pyrimidin-7-one] are greater than 1000 nM and less than 1000 nM.
On to `COn1c(=O)c(-c2c(C)cccc2C)cc2cnc(Nc3cccnc3)nc21` [Compound 114, 6-(2,6-Dimethylphenyl)-8-methoxy-2-pyrid-3-ylamino-pyrido[2,3-d]pyrimidin-7-one], for which the IC50 is less than 100 nM at B-Raf delta1-415 and less than 10000 nM with HT-29 tumor cells.

Values taken from patent US8518958B2, “Pyrido [2,3-D] pyrimidines and their use as kinase inhibitors” (Forma Therapeutics, Inc., priority 2006, dated 2013).
